In experiment [1] the test system is Rat reversed passive Arthus reaction (skin). Put plainly: Rat reversed passive Arthus reaction (skin) inhibitory activity. The experiment is classed as in vivo, rat (Jcl: SD). To be noted: po, orally, read-out: Inhibitory percentage (reversed passive Arthus reaction). As to the method: Rat Reversed Passive Arthus Reaction (skin) Inhibitory Activity This reaction was-induced by using domestic rabbit anti-egg albumin (EA) antiserum according to the method of Chang and Otterness [Chang, Y. -H. and Otterness, I. G.: Eur. J. Pharmacol. 69, 155 (1981)]. Using six Jcl: SD male rats (7 weeks old, weight about 250 g) per one group, the hair was removed from the back under ether anesthesia, 1 ml of 0.5% EA physiological saline was injected […] into the tail vein, and further each 0.1 ml of diluted antiserum (6 mg protein antibody/ml) was injected in the back on both dexter and sinister sides. […] Acceleration of permeability through the vessel by the reaction was measured by injecting 1 ml of 1% Evans blue physiological saline intravenously at three hours after the induction of the reaction. Then, after 30 minutes, the rat was sacrificed by exsanguination. The skin was peeled off and the area of pigment spot (length×breadth, mm^2) was measured.

Another experiment has as its system ICAM-1. Put plainly: Adhesion protein expression inhibitory activity, ICAM-1. The experiment is classed as cell-based. The method, then:
(§1) Adhesion Protein Expression Inhibitory Activity The various concentrations of test compounds were added to the human umbilical cord-derived vascular endothelial cells [sold by Klabo] which were seeded in the gelatin coat plate and the mixture was incubated at 37° C. for 15 minutes. Then, the human tumor necrosis factor-α[TNF-α; sold by Genzyme] was added therein to the final concentration of 1 ng/ml and incubation was carried out at 37° C. for 3 hours for expression of ELAM-1 and for 6 hours for that of ICAM-I. After the reaction, the cells were fixed using glutaraldhyde and the expression amount of ELAM-1 and ICAM-1 was measured by the cell-ELISA method. That is, the expression was determined by […] the adhesion proteins on the cells in the system using anti-ELAM-1 antibody BBA-2 and anti-ICAM-1 antibody BBA4 as the first antibody as well as horseradish peroxidase-labeled rabbit anti-mouse IgG antibody as the second antibody.

In a further experiment the target is T1, cyclooxygenase (Rattus norvegicus, UniProt Q63921).
T1 construct: from tissue; host or cells: platelets in platelet-rich plasma from rat abdominal aorta blood (Jcl:wistar, male)
T1 sequence (Q63921 27-602): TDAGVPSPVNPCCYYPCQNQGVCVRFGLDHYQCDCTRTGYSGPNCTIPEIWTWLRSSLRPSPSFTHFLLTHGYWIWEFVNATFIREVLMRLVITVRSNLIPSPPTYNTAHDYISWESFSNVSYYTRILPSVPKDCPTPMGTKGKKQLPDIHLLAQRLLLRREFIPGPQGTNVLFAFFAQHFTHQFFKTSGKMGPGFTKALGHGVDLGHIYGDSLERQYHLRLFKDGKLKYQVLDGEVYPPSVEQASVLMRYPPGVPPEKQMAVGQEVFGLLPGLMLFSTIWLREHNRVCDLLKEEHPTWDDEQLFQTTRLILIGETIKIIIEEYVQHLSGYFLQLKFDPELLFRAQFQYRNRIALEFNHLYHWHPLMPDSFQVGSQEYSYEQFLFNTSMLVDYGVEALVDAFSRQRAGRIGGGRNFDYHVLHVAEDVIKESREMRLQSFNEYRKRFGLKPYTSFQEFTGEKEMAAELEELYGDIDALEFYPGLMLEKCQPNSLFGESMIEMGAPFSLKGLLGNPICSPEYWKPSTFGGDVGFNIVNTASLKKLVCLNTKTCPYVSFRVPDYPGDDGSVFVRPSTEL
Put plainly: Cyclooxygenase inhibitory activity (HHT formation from arachidonic acid in rat platelet-rich plasma). The experiment is classed as cell-based, rat (Jcl:wistar).

Experiment [2] relates to ART (antigen-responding T-cell). Put plainly: In vitro ART (antigen-responding T-cell) proliferation test. The experiment is classed as cell-based, Lewis rat. To be noted: Rattus norvegicus, T-cell, read-out: % Inhibition of ART growth.
Experiment [3] has as its system brewer's yeast induced pyrexia. Put plainly: Antipyretic activity (brewer's yeast induced pyrexia). To be noted: 50 mg/kg, orally. The experiment is classed as in vivo, rat (DS line). In a few lines:
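Male DS rats (7 weeks, 200-240 g) made febrile by s.c. 15% brewer's yeast 18 h before dosing; only animals at ≥38.5° C used. Compound given orally versus solvent control, with rectal temperature taken by thermistor hourly for 5 h post-dose.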

The subject of experiment [4] is Mouse acetic acid writhing. Put plainly: Mouse acetic acid writhing inhibitory activity. The experiment is classed as in vivo, mouse (Slc: ICR). To be noted: orally; for inhibition in vivo at 50 mg/kg: Mus musculus, po, 20 min, read-out: Inhibitory percentage (acetic acid writhing); for Inhibitory percentage (acetic acid writhing): 50 mg/kg, hydrochloride. As to the method:
Mouse Acetic Acid Writhing Inhibitory Activity
Ten male Slc: ICR mice, 4 weeks old, per 1 group were used. A test compound was administered orally, and after 30 minutes, 0.1 ml/10 g body weight of physiological saline containing 0.6% acetic acid was injected intraperitoneally. For 20 minutes, writhing (in agony condition) response by administration of acetic acid was counted regarding individual animals. The inhibitory percentage relative to the mean response counts of a control group was calculated regarding respective animals in a test compound administration group. The test compound was suspended in 5% gum arabic solution, and the administration volume was 0.2 ml/10 g.
(Writhing tests count abdominal constrictions after an irritant is injected.)

For experiment [5], the system named is Rat carrageenin pedal edema. Put plainly: Rat carrageenin pedal edema inhibitory activity. In kind it is in vivo, rat (Jcl: SD). To be noted: Rattus norvegicus, po, 3 h, 50 mg/kg, orally, 3 hours after carrageenin; read-out: Inhibitory percentage (carrageenin pedal edema). In a few lines: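 Male Jcl:SD rats (6 weeks, 160-220 g) received test compound orally as a 5% gum arabic suspension, topped up with water to 5 ml/rat. One hour later 0.05 ml of 1% carrageenin was injected subcutaneously into the right hind foot pad. Edema volume was the foot volume increase 3 hours post-injection.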
In general terms: The carrageenan paw model is a standard test of acute inflammation.

In another experiment the test system is ELAM-1. The experiment in a line: Adhesion protein expression inhibitory activity, ELAM-1. The experiment is classed as cell-based. As to the method:
as §1

In the next experiment the target is T2, 5-Lipoxygenase (Rattus norvegicus, UniProt P12527).
T2 construct: rat basophilic leukemia cell suspension; endogenous in cells
T2 sequence (P12527 1-673): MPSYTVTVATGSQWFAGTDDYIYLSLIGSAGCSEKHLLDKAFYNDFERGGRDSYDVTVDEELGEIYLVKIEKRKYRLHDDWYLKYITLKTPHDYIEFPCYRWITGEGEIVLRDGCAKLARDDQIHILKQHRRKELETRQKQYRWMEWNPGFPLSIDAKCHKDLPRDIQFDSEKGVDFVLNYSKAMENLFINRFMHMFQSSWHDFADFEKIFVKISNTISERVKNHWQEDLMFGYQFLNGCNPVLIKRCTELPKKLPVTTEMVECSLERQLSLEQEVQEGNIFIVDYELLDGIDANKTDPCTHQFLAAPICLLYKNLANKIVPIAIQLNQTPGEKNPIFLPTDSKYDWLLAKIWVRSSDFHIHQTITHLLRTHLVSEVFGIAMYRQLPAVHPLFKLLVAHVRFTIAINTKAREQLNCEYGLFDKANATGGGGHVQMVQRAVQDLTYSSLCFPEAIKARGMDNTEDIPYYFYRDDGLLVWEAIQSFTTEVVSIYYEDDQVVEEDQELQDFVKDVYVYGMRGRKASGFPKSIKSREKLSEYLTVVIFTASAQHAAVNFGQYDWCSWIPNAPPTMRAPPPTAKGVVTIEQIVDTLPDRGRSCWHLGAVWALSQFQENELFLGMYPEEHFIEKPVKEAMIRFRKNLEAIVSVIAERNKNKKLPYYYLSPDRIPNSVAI
Put plainly: 5-Lipoxygenase inhibitory activity in rat basophilic leukemia cells. The experiment is classed as cell-based. As to the method: 5-Lipoxygenase Inhibitory Activity […] Then, 0.1 ml of mast cell medium containing 50 μg of arachidonic acid and 1 μg of calcium ionophore (A-23187) were added and the mixture was allowed to stand at 37° C. for 15 minutes. Ethanol (1 ml) was added thereto and the mixture was shaken well, and filtered (Membrane filter, 0.45 μm). […] As a control, the measurement was carried out according to the same manner except that 0.01 ml of the solvent used for dissolving the test compound was used in place of the test compound. The inhibitory percentage (%) was calculated from the following equation to obtain IC50.

[6] abbreviates: 30 μM, human umbilical vascular endothelial cells, TNF-α; 360 min.
Where [7] appears, read: 5-HETE, read-out: 5-Lipoxygenase inhibitory activity, 5-HETE IC50.
Where [8] appears, read: LTB4, read-out: 5-Lipoxygenase inhibitory activity, LTB4 IC50.
Setting [9] is: 10 μM, human umbilical vascular endothelial cells, TNF-α; 180 min.

Where a name gives a salt, the structure may show the parent alone. Read-outs that look alike come from different tables or passages of the source.

Turning to `O=C(C=Cc1cccs1)NCCCSc1ccncc1` [Example 56, 4-[3-(2-thiopheneacrylamino)propylthio]pyridine], in [1], the inhibition in vivo at 50 mg/kg was 32%.

Regarding `O=C(NCCSc1ccncc1)c1cc2ccccc2s1` [Example 123, 4-[2-(thianaphthene-2-carbonylamino)ethylthio]pyridine], the “Expression Inhibitory Potency, ICAM-1” value in the experiment with ICAM-1 (setting [6]) came out at 34%. This compound returned a half-maximal inhibitory concentration (IC50) against cyclooxygenase of 3.3 µM. Also, in [2], the inhibition at 1 µM was determined as 15% and the inhibition at 10 µM came out at 66%.

Regarding `O=C(NCCCSc1ccncc1)c1cnccn1` [Example 124, 4-[3-(2-pyrazinecarbonylamino)propylthio]pyridine], the “Antipyretic activity, peak time” value in experiment [3] is reported as 2 h. Besides, the “Antipyretic activity, .increment. °C.” value in experiment [3] (at peak time) was -1.52 °C. Moreover, inhibition against cyclooxygenase was half-maximal at 5.5 µM (IC50). The inhibition in vivo at 50 mg/kg in [4] amounted to 69%; in experiment [5], 51%.

As for `O=c1[nH]c2ccccc2c(=O)n1CCCCSc1ccncc1` [Example 146, 3-[4-(4-pyridylthio)butyl]quinazolin-2,4(1H,3H)-dione], the IC50 against cyclooxygenase is 5.1 µM. In [2], the inhibition at 1 µM was determined as 22% and the inhibition at 10 µM is 20%. In addition, the “Expression Inhibitory Potency, ELAM-1” value with ELAM-1 (13 μM, human umbilical vascular endothelial cells, TNF-α; 180 min) was found to be 33%.

On to `O=C1SC(=Cc2ccc(Cl)cc2)C(=O)N1CCCCSc1ccncc1` [Example 151, 4-[4-[5-(4-chlorobenzylidene)-2,4-thiazolidinedione]butylthio]pyridine], for which the “Expression Inhibitory Potency, ICAM-1” value in the experiment on ICAM-1 (setting [6]) came out at 60%. Further, in experiment [2], the inhibition at 1 µM was -1% and the inhibition at 10 µM stood at 74%. The IC50 on 5-Lipoxygenase (setting [7]) amounted to 1.8 µM. At 5-Lipoxygenase (setting [8]), the half-inhibitory concentration (IC50) stood at 1.1 µM.

For `O=C1C(=Cc2ccccc2)SC(=S)N1CCCCSc1ccncc1` [Example 153, 4-[4-(5-benzylidenerhodanine)butylthio]pyridine], in [2], the inhibition at 1 µM was -20% and the inhibition at 10 µM worked out at 75%. Further, in experiment [4], the inhibition in vivo at 50 mg/kg was 49%. Besides, the IC50 on 5-Lipoxygenase (setting [7]) is 1.3 µM. For the same compound, on 5-Lipoxygenase (setting [8]), the IC50 came to 0.79 µM.

With `CC1(C)OC(=O)N(CCCCSc2ccncc2)C1=O` [Example 167, 4-(4-(5,5-dimethyloxazolidine-2,4-dione)butylthio]pyridine], the inhibition in vivo at 50 mg/kg in experiment [4] came to 62%.

On to `O=c1c2ccccc2oc(=S)n1CCSc1ccncc1` [Example 170, 4-[2-[2H-1,3-benzoxadine-2-thion-4(3H)-on]ethylthio]pyridine], for which, in experiment [4], the inhibition in vivo at 50 mg/kg came out at 91%.

Turning to `O=C1c2ccccc2S(=O)(=O)N1CSc1ccncc1` [Example 172, 4-saccharinmethylthiopyridine], the “Expression Inhibitory Potency, ICAM-1” value in the experiment with ICAM-1 (13 μM, human umbilical vascular endothelial cells, TNF-α, 360 min) was found to be 34%. Besides, the “Expression Inhibitory Potency, ELAM-1” value with ELAM-1 (13 μM, human umbilical vascular endothelial cells, TNF-α, 180 min) is 31%. Further, the inhibition in vivo at 50 mg/kg in [5] stood at 19%.

For the compound `O=C1CSC(=O)N1CSc1ccncc1` [Example 176, 4-(2,4-thiazolidinedionemethylthio)pyridine hydrochloride], in experiment [4], the “Inhibitory percentage (acetic acid writhing)” value is given as 87%.

With `CC1(C)OC(=O)N(CSc2ccncc2)C1=O` [Example 179, 4-(5,5-dimethyloxazolidine-2,4-dionemethylthio)pyridine hydrochloride], the “Inhibitory percentage (acetic acid writhing)” value in experiment [4] is 66%.

Consider `O=C1c2ccccc2S(=O)(=O)N1CSc1ccncc1` [Example 180, 4-(saccharinmethylthio)pyridine hydrochloride], for which the “Expression Inhibitory Potency, ICAM-1” value in the experiment with ICAM-1 (13 μM, human umbilical vascular endothelial cells, TNF-α, 360 min, hydrochloride) is 35%. The “Expression Inhibitory Potency, ELAM-1” value in the experiment with ELAM-1 (13 μM, human umbilical vascular endothelial cells, TNF-α, 180 min, hydrochloride) is given as 29%.

For `O=C1SC(=Cc2ccncc2)C(=O)N1CCCCSc1ccncc1` [Example 184, 4-[4-[5-(4-pyridyl)methylene-2,4-thiazolidinedione]butylthio]pyridine], the “Expression Inhibitory Potency, ELAM-1” value in the experiment on ELAM-1 (setting [9]) amounted to 47%.

For `O=C1SC(=Cc2cccnc2)C(=O)N1CCCCSc1ccncc1` [Example 185, 4-[4-[5-(3-pyridyl)methylene-2,4-thiazolidinedione]butylthio]pyridine], the “Expression Inhibitory Potency, ELAM-1” value in the experiment with ELAM-1 (setting [9]) is recorded as 33%.

Consider `CCCCCCCCCC=C1SC(=O)N(CCCCSc2ccncc2)C1=O` [Example 187, 4-[4-(5-nonylmethylene-2,4-thiazolidinedione)butylthio]pyridine hydrochloride], for which the “Expression Inhibitory Potency, ICAM-1” value with ICAM-1 (10 μM, human umbilical vascular endothelial cells, TNF-α; 360 min) is on record as 79%. The “Expression Inhibitory Potency, ELAM-1” value in the experiment on ELAM-1 (setting [9]) is given as 53%.

Turning to `O=c1c2ccccc2n(CCCCSc2ccccn2)c(=O)n1CCCCSc1ccccn1` [Example 198, 1,3-bis[4-(2-pyridylthio)butyl]quinazoline-2,4(1H,3H)-dione], the “Expression Inhibitory Potency, ICAM-1” value in the experiment with ICAM-1 (13 μM, human umbilical vascular endothelial cells, TNF-α; 360 min) turned out to be 25%.

For orientation: IC50 means the concentration that gives 50% inhibition. Broadly, the inhibition is the drop in the measured response relative to a control, in per cent.

These data come from US5457106A, “Pyridine derivatives, their production and use” (Takeda Chemical Industries, Ltd., priority 1991, dated 1995).
